According to ChEMBL document CHEMBL4184323, “Structure-Guided Design, Synthesis, and Characterization of Next-Generation Meprin β Inhibitors” (J Med Chem, 2018):

Columns and labels:
CYP2C9 = CYP2C9 (Homo sapiens, UniProt P11712); experiment: Inhibition of recombinant human CYP2C9 expressed in baculosomes assessed as residual activity at 25 uM using BOMCC substrate by fluorescence assay relative to control; type: ADME; details: probe BOMCC, read-out: Activity
[1] = Drug absorption in Sprague-Dawley rat at 5 mg/kg, po by LC-MS analysis; type: ADME, organism-based; details: in vivo, read-out: Fabs
Homo sapiens = organism: Homo sapiens; experiment: Selectivity ratio of IC50 for recombinant human meprin alpha expressed in insect cells to IC50 for recombinant human meprin beta expressed in yeast
meprin alpha = biological target: T1, meprin alpha (Homo sapiens, UniProt Q16819); experiment: Inhibition of recombinant human meprin alpha expressed in insect cells assessed as residual activity using Abz-YVADAPK(Dnp)G-OH as substrate at 200 uM by fluorescence assay relative to control; details: probe Abz-YVADAPK(Dnp)G-OH, read-out: Activity
T1 sequence (Q16819 whole entry): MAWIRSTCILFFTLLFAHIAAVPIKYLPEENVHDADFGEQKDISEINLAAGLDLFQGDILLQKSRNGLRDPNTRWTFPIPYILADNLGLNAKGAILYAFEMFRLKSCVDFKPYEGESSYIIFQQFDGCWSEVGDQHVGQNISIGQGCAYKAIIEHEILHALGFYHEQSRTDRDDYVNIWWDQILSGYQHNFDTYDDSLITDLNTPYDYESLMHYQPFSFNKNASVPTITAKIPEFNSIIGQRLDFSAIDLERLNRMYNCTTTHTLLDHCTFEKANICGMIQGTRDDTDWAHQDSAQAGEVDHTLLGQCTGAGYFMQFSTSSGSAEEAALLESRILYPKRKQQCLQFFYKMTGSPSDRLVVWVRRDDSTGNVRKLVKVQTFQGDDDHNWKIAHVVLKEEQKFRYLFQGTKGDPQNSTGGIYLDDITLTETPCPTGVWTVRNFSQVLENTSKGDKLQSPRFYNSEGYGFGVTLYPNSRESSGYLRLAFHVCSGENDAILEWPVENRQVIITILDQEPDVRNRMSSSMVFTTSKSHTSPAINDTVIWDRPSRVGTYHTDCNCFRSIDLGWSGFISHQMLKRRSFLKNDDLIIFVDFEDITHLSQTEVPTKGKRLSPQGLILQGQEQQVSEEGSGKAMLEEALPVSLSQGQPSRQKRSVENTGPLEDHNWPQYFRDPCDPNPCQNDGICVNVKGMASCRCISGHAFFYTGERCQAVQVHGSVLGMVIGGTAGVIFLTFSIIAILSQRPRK

[2] = Tmax in Sprague-Dawley rat at 10 mg/kg, ip by LC-MS analysis; type: ADME, organism-based; details: in vivo
[3] = Clearance in Sprague-Dawley rat at 6 mg/kg, iv by LC-MS analysis; type: ADME, organism-based; details: in vivo
ADAM17 = ADAM17 (Homo sapiens, UniProt P78536); experiment: Inhibition of human ADAM17 assessed as residual activity using Abz-LANAVRSSSR-(DapDnp)-AR-NH2 as substrate at 200 uM by fluorescence assay relative to control; details: human ADAM17 enzyme, probe Abz-LANAVRSSSR-(DapDnp)-AR-NH2, read-out: Activity
Chain of ADAM17 (P78536 whole entry): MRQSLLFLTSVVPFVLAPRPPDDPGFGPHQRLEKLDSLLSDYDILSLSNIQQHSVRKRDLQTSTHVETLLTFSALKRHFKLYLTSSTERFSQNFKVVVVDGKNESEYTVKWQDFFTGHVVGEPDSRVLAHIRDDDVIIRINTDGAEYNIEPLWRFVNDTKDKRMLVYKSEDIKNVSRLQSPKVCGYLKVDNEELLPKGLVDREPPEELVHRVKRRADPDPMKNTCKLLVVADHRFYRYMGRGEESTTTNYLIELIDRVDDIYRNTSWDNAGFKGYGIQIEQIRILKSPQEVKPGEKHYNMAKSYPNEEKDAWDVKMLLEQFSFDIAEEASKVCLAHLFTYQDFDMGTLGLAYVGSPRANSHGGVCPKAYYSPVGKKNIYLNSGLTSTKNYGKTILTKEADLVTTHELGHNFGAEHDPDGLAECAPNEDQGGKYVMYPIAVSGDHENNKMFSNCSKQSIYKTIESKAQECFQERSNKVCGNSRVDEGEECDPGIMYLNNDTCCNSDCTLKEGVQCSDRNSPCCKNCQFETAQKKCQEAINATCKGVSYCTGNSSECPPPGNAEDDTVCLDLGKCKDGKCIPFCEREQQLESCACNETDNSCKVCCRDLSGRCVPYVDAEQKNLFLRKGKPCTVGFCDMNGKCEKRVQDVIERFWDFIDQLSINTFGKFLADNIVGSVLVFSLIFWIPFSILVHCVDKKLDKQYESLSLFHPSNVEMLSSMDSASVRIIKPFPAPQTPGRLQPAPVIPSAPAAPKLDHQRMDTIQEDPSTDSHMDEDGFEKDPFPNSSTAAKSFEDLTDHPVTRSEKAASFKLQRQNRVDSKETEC

Chain of CYP2C9 (P11712 whole entry): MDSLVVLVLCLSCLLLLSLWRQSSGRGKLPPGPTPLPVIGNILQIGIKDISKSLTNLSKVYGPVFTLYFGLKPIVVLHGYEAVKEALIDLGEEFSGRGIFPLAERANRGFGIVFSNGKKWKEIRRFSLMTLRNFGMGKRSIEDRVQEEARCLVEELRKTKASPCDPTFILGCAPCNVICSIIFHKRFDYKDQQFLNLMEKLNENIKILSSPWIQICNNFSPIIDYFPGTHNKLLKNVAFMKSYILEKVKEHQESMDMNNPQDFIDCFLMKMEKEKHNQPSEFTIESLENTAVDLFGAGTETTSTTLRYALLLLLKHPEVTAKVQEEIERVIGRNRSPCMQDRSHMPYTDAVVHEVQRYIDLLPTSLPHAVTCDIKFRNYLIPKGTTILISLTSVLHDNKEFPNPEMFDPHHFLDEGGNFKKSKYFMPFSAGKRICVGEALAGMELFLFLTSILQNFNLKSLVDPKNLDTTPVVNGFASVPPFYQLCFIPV

O=C(CN(Cc1cccc(C(=O)O)c1)Cc1cccc(C(=O)O)c1)NO
activity at 25 µM (CYP2C9): 101% | Fa [1]: 13% | Ratio IC50 (Homo sapiens): 300 | activity at 200 µM (meprin alpha): < 10% | Tmax [2]: 7.2 min | clearance [3]: 29.7 mL/min/kg | activity at 200 µM (ADAM17): 76%
